Results as given in patent publication US20180327806A1, “MULTIPLEX HIGH-[…] OF MICRO-ORGANISM STRAINS, RELATED KITS, D[…] AND SCREENING ASSAYS” (THE BROAD INSTITUTE, INC., priority 2015, published 2018).

Columns and labels:
dfrA hypomorph strain = type: cell-based, M. tuberculosis; details: drug targeting dfrA
[1] = test system: PA14 strain with MurA knockdown (hypomorph); test: Growth of PA14 MurA knockdown (hypomorph) strain with drug; type: cell-based, Pseudomonas aeruginosa
Description: Engineering hypersusceptible strains (hypomorph strains): Strain PA14 is engineered so that the expression of selected essential genes may be lowered using a ‘weaker’ promoter. […] 30). It is possible to use a promoter library of varying strengths that was developed to drive GFP expression in E. coli (Davis, J. H., A. J. Rubin, and R. T. Sauer, Design, construction and characterization of a set of insulated bacterial promoters. Nucleic Acids Res, 2011. 39(3): p. 1131-41). […] The weakest promoter that provides the lowest tolerable level of the protein that still yields a viable bacterium may be used for each essential gene to create a hypersensitive strain. It is also proposed to construct control strains by knocking out dihydrofolate reductase dhfr (which is the target of trimethoprim), dihydropteroate synthetase dhps (which is the target of sulfamethoxazole), murA (which is the target of fosfomycin) and ostA (which is the OMP target of POL7001 [Srinivas, N., et al., Peptidomimetic antibiotics target outer-membrane biogenesis in Pseudomonas aeruginosa. Science, 2010. 327(5968): p. 1010-3.]). Then, it is possible to measure the MIC for each of these compounds against their respective strains compared to wild-type PA14.
FIG. 5 illustrates the use of variable promoters for generating and selecting hypomorph strains. […]

SMILES	sensitivity of dfrA hypomorph strain to drug (dose response curve) (dfrA hypomorph strain)	sensitivity of MurA knockdown PA14 strain to drug [1]
CN(Cc1cnc2nc(N)nc(N)c2n1)c1ccc(C(=O)N[C@@H](CCC(=O)O)C(=O)O)cc1 [methotrexate]	hypersensitive	–
C[C@@H]1O[C@@H]1P(=O)(O)O [fosfomycin]	–	hypersensitive
